Results: BindingDB's records for patent US20240002391 (Biosplice Therapeutics, 2024)

Biological target: Dual specificity tyrosine-phosphorylation-regulated kinase 1A (Homo sapiens, UniProt Q13627)
Experiment: DYRK1A kinase assay
Description: The mixture was allowed to incubate with the representative compounds for one hour at room temperature. All reactions were performed in duplicate. Unphosphorylated ( 0% Control ) and phosphorylated ( 100% control ) forms of Ser/Thr 18 served as control reactions. Additionally, an 11-point dose-response curve of Staurosporine (luM top) was run to serve as a positive compound control. After incubation, Development Reagent A was diluted in Development Buffer then added to the reaction and allowed to further incubate for one hour at room temperature.

Row | SMILES | EC50
1 | COc1nc(N[C@H]2C[C@@](C)(O)C2)nn2ccc(-c3ccc4nccn4c3)c12 [US20240002391, Compound 43] | 1.3 nM
2 | COc1nc(N[C@H]2C[C@](C)(O)C2)nn2ccc(-c3ccc4nccn4c3)c12 [US20240002391, Compound 44] | 3.2 nM
3 | COc1nc(N[C@H]2C[C@@](C)(N)C2)nn2ccc(-c3ccc4ncnn4c3)c12 [US20240002391, Compound 189] | 18.8 nM
4 | COc1nc(N[C@H]2C[C@@](C)(NC(=O)C3(C#N)CC3)C2)nn2ccc(-c3ccc4nnn(C)c4c3)c12 [US20240002391, Compound 625] | 0.9 nM
5 | COc1nc(N[C@H]2CC[C@](C)(O)CC2)nn2cc(F)c(-c3ccc4nnn(C)c4c3)c12 [US20240002391, Compound 629] | 2.4 nM
6 | Cn1nnc2ccc(-c3ccn4nc(N[C@H]5CC[C@](C)(O)CC5)nc(OC5COC5)c34)cc21 [US20240002391, Compound 631] | 24.5 nM
7 | COc1nc(N[C@H]2C[C@]3(CCN3CC(F)F)C2)nn2ccc(-c3ccc4nccnc4c3)c12 [US20240002391, Compound 1099] | 0.7 nM

The remaining lines, values ahead:

Row | EC50 | SMILES
8 | 1.3 nM | CCn1nnc2ccc(-c3ccn4nc(N[C@H]5CC[C@](C)(O)CC5)nc(OC)c34)cc21 [US20240002391, Compound 639]
9 | 1.3 nM | COc1nc(N[C@H]2C[C@@](C)(NC(C)=O)C2)nn2ccc(-c3ccc4nnn(CCF)c4c3)c12 [US20240002391, Compound 653]
10 | 4.5 nM | COc1nc(N[C@H]2CC[C@@](C)(O)CC2)nn2ccc(-c3ccc4nnn(CCF)c4c3)c12 [US20240002391, Compound 658]
11 | 0.9 nM | COc1nc(N[C@H]2CC[C@](C)(O)CC2)nn2ccc(-c3ccc4nnn(CCF)c4c3)c12 [US20240002391, Compound 659]
